In US10857170B1, “Molecules, compositions and methods for modulation of SIRT6” (SirTLab Corporation, priority 2015, dated 2020):

Target: T1, Human recombinant SIRT6 (Homo sapiens, UniProt Q8N6T7)
T1 construct: six-histidine (His6); made in house; host or cells: Escherichia coli BL21
Test: SIRT6 enzymatic activity assay (fluorogenic de-myristoylation of histone H3 peptide-AMC, trypsin-coupled)
Type: biochemical
Details: Table 2, percentage of signal increase relative to control wells; for % activity 20 uM: compound 20 uM; for % activity 100 uM: compound 100 uM
Method: Human recombinant SIRT6 (sequence identifier: CAG33481.1; GI:4814651) was expressed in large scale in Escherichia coli strain BL21 as a six-histidine-tagged protein, after transformation of the expression plasmid pET28-SIRT6. The SIRT6 enzyme was purified from the bacteria culture broth in a two-step strategy. The first purification step was carried out by cation exchange chromatography on a HiTrap CM-Sepharose column (GE Healthcare) using an FPLC system. The second purification step was performed by immobilized metal ion affinity chromatography (IMAC) using a cobalt affinity column (Clontech).
The enzymatic activity assay is carried out in 96 or 384-well microplates using the purified recombinant SIRT6 and a fluorophore-labeled peptide substrate: 7-amino-4-methylcoumarin (AMC) that is quenched through conjugation to the C-terminal end of a Lysin-myristoylated histone H3 peptide. The activity assay procedure requires two steps, both performed in the same microplate. In the first step, the substrate is incubated with the purified SIRT6 protein along with the co-substrate nicotinamide adenine dinucleotide (NAD+). Upon de-myristoylation, the liberated ε-amino group of the lysine becomes a trypsin substrate. Treatment with trypsin in the second step releases the fluorophore resulting in an increase in fluorescence. Fluorescence intensity is measured using a fluorescent plate reader (excitation and emission at 370 nm and 450 nm, respectively). The fluorescence signal is directly proportional to SIRT6 enzymatic activity.
In the primary screening, compounds from a library (ChemDiv Inc.) were tested at a single concentration of 20 micromolar for their potential to modulate SIRT6 enzymatic activity. The assay was carried out in 384-well black well plates and all liquid handling was done using a robotic liquid handler. Purified recombinant SIRT6 (1 micromolar) was pre-incubated with each compound (or DMSO in control wells) for 15 minutes at room temperature. The first stage of the assay was initiated by adding a ‘substrate solution’ containing the myristoylated histone H3 peptide and NAD+(for final concentrations of 25 micromolar and 20 micromolar, respectively). After one hour incubation at 37° C., a Trypsin solution (6 mg/mL) was added for 30 minutes at room temperature. Fluorescence intensity was measured using a fluorescent plate reader (Tecan) with excitation at 370 nm and emission at 450 nm. The effect of each tested compound was evaluated by the change in the fluorescence intensity compared to control wells. […] To validate the primary screening results, each of the primary “hits” was re-tested, first at concentration of 20 micromolar in duplicates and later at a serial dilution ranging from 100 to 0.2 micromolar in triplicates.

T1 sequence (Q8N6T7 whole entry): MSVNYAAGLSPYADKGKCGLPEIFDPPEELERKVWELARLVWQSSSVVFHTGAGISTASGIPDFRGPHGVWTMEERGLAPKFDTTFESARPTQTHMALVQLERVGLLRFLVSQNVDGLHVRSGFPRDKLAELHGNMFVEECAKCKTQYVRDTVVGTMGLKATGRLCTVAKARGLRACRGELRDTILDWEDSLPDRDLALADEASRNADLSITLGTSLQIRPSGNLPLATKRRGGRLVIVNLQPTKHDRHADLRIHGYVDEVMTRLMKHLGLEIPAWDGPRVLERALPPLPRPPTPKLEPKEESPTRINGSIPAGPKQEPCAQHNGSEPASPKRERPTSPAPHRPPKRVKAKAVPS

% activity 20 uM [%] | % activity 100 uM [%] | Compound
88 | 428 | CCc1nc(-c2ccccc2)c2cc(Cl)ccc2n1 [compound 1]
28 | 113 | C=C1Cc2cc(C)cc(CC(=O)[C@@H](NS(=C)(=C)c3ccc(C)cc3)[C@H](C)CC)c2C2=C1CCC2 [compound 62]
37 | 75 | O=c1cc(O)c2sc3nc4c(cc3c2[nH]1)CCCCC4 [compound 15]
59 | 137 | O=C(NCc1cccc(Cl)c1)c1noc2c1CSc1ccccc1-2 [compound 27]
38 | 47 | Cc1noc(-c2cccc(OC3CN(C(=O)c4cccc5[nH]ccc45)C3)c2)n1 [compound 58]
25 | 27 | C=C(CN1c2ccccc2C(C)(C)C12C=Cc1c(ccc3ccccc13)C2)NC (stereo not drawn) [compound 10]
40 | 110 | CCC(=O)Nc1ccc(-c2cc(C(=O)NCCCN3CCCCC3C)c3ccccc3n2)cc1 (stereo not drawn) [compound 41]
42 | 35 | C=C1Cc2c(cccc2CC)C=C1C1=CCC(NC(=O)CCC(=O)NCCCN2CCC(C)CC2)=N1 [compound 37]
89 | 175 | C=C(C)C1Cc2cc(C(F)(F)F)ccc2N2CCCCC12 (stereo not drawn) [compound 59]
